Assay results published in paper PMC11066876, “Late-Stage Saturation of Drug Molecules” (Journal of the American Chemical Society, 2024).
≈ marks a conversion by molar mass, not a printed value.

Experiments:
[1] = Measurement of LogPo/w (n-octanol/water, RP-HPLC); type: physicochemical; conditions: n = 3; for logP at 24 h: measured n-octanol-water partition coefficient, 30 °C; for C(oil): n-octanol phase; for C(oil) / C(aqueous): n-octanol/water 1:1, 30 °C, 24 h; for C(aqueous): water phase
[2] = High-throughput (direct-to-biology) human liver microsomal stability assay; conditions: for %Change After 60 min: %remaining after LSS minus before LSS at 60 min; for remaining at 0 h, 105 µM / remaining at 0.25 h, 105 µM / remaining at 0.5 h, 105 µM / remaining at 1 h, 105 µM / half-life at 105 µM: both, human, microsomes, pH 7.4
[3] = parameters: method as in PMID 23701517; conditions: Figure 1B; cited from earlier work
[4] = parameters: method as in PMID 23701517; conditions: aqueous solubility, Figure 1B; cited from earlier work
SARS-CoV M^pro = conditions: Figure 1B; cited from earlier work
[5] = Metabolic stability in human liver microsomes (Pharmaron); conditions: for CLint scaled at 1 µM / microsomal CLint at 1 µM / half-life at 1 µM: both, microsomes; for CLint scaled at 1 µM / microsomal CLint at 1 µM / half-life at 1 µM / Hepatic Extraction Ratio (ER) / Predicted Hepatic CLH: human; for Remaining Percentage 0.5 min / Remaining Percentage 5 min / Remaining Percentage 15 min / Remaining Percentage 30 min: human liver microsomes 0.5 mg/mL, +Cofactors (NADPH), 1 μM; for Predicted Hepatic CLH: QH 21 mL/min/kg, fub assumed 1
[6] = Traditional t1/2, human liver microsomes, Figure 6B
[7] = in vitro t1/2, human liver microsomes, Table S21

| Structure (SMILES) | logP at 24 h [1] | C(oil) [1] | C(aqueous) [1] | %Change After 60 min ([2]; human liver microsomes) | remaining at 0 h, 105 µM [2] | remaining at 0.25 h, 105 µM [2] | remaining at 0.5 h, 105 µM [2] | remaining at 1 h, 105 µM [2] | also measured |
| --- | --- | --- | --- | --- | --- | --- | --- | --- | --- |
| CCOC(=O)[C@H](C)C[C@@H](Cc1ccc(C2CCCCC2)cc1)NC(=O)CCC(=O)O [compound 70] | 1.39 | 0.737 mg/mL | 0.030 mg/mL |  |  |  |  |  |  |
| CCOC(=O)[C@H](C)C[C@@H](Cc1ccc(-c2ccccc2)cc1)NC(=O)CCC(=O)O [Sacubitril] | 1.47 | 1.368 mg/mL | 0.047 mg/mL | -1.91% | 100% | 60.2% | 34% | 22.6% |  |
| CC(C(=O)O)c1ccc(-c2ccccc2)c(F)c1 (stereo not drawn) [Flurbiprofen] | 1.14 | 1.858 mg/mL | 0.135 mg/mL | 7.13% | 100% | 50.1% | 25.1% | 9.28% |  |
| CC(C(=O)O)c1ccc(C2CCCCC2)c(F)c1 (stereo not drawn) [compound 27] | 1.54 | 2.453 mg/mL | 0.071 mg/mL |  |  |  |  |  | microsomal stability upon saturation ([2]; human liver microsomes, saturated congener versus parent drug, in words): increase in stability |
| CCN(Cc1ccncc1)C(=O)C(CO)c1ccccc1 (stereo not drawn) [Tropicamide] |  |  |  | -2.61% | 100% | 95.2% | 91.9% | 88.1% |  |
| COc1ccccc1N1CCN(CC(O)COc2cccc3c2CCCC3)CC1 (stereo not drawn) [compound 28] | 2.1 | 1.761 mg/mL | 0.014 mg/mL |  |  |  |  |  |  |
| CC1(C)OC(=O)N(c2ccc(C(=O)Nc3cccc4cccnc34)cc2)[C@H]1c1ccccc1 [compound 3] |  |  |  |  |  |  |  |  | Plasma stability (t1/2) [3]: 312 min; Solubility [4]: 5 µg/mL (≈ 11.4 µM) |
| CC(C(=O)O)c1ccc(N2Cc3ccccc3C2=O)cc1 (stereo not drawn) [Indoprofen] | 1.02 | 0.943 mg/mL | 0.091 mg/mL | -14.04% | 100% | 97.6% | 99% | 102% |  |
| COC(=O)N[C@H](C(=O)N[C@@H](Cc1ccccc1)[C@@H](O)CN(Cc1ccc(-c2ccccn2)cc1)NC(=O)[C@@H](NC(=O)OC)C(C)(C)C)C(C)(C)C [Atazanavir] |  |  |  | -5.37% | 100% | 84.7% | 72.9% | 65.3% |  |
| CCCNC(C)C(=O)NC1CCCCC1C (stereo not drawn) [compound 15] | 1.39 | 1.569 mg/mL | 0.064 mg/mL |  |  |  |  |  |  |
| O=C(/C=C/c1ccccc1)N[C@@H](CC1CCCCC1)C(=O)N[C@@H](C[C@@H]1CCNC1=O)C(=O)C(=O)NCc1ccccc1 [compound 2] |  |  |  |  |  |  |  |  | IC50 (SARS-CoV M^pro): 0.71 µM |
| CC1(C)OC(=O)N([C@H]2CC[C@H](C(=O)Nc3cccc4cccnc34)CC2)[C@H]1c1ccccc1 [compound 4] |  |  |  |  |  |  |  |  | Plasma stability (t1/2) [3]: > 500 min |
| CC(C)NCC(O)COc1cccc2ccccc12 (stereo not drawn) [Propranolol] |  | 2.871 mg/mL | 0.015 mg/mL |  |  |  |  |  |  |
| CC(Cc1cccc(C(F)(F)F)c1)NCCOC(=O)c1ccccc1 (stereo not drawn) [Benfluorex] |  |  |  |  | 100% |  |  |  |  |
| COc1ccc2cc(CCC(C)=O)ccc2c1 [Nabumetone, nabumetone] |  |  |  | 5.23% | 100% | 58% | 40.7% | 21.7% |  |
| Nc1c2ccccc2nc2ccccc12 [Aminacrine] |  |  |  | -12.39% | 100% | 83.7% | 75.1% | 66.2% |  |
| CC(C(=O)O)c1ccc(N2C[C@H]3CCCC[C@H]3C2=O)cc1 (stereo partly drawn) [compound 37] | 0.813 | 0.897 mg/mL | 0.138 mg/mL |  |  |  |  |  |  |
| CCN(CC)C(=O)c1cccc(C)c1 [Diethyltoluamide] |  |  |  | 0.82% | 100% | 89% | 81.7% | 75.5% |  |
| C[C@@H](NCCCc1cccc(C(F)(F)F)c1)c1cccc2ccccc12 [Cinacalcet] | 4.61 | 8.962 mg/mL | 0.0002 mg/mL | -1.7% | 100% | 67.4% | 49% | 35.4% | CLint scaled at 1 µM [5]: 4.04 L/h/kg; microsomal CLint at 1 µM [5]: 65.6 µL/min/mg; half-life at 1 µM [5, 6]: 21.1 min; half-life at 1 µM [5, 7]: 21.1 min; Hepatic Extraction Ratio (ER) [5]: 0.76; Remaining Percentage 0.5 min [5]: 100.00%; Remaining Percentage 5 min [5]: 80.88%; Remaining Percentage 15 min [5]: 55.07%; Remaining Percentage 30 min [5]: 37.55%; Predicted Hepatic CLH [5]: 0.9606 L/h/kg; half-life at 105 µM [2]: 35.4 min |
| CCC1(c2ccccc2)C(=O)NCNC1=O [Primidone] |  |  |  | 2.16% | 100% | 71% | 43.6% | 27.8% |  |
| O=C(C1CCCCC1)N1CC(=O)N2CCc3ccccc3C2C1 (stereo not drawn) [Praziquantel, praziquantel] |  |  |  | -15.26% |  |  | 31.8% | 15.3% |  |
| CCCNC(C)C(=O)Nc1ccccc1C (stereo not drawn) [Prilocaine] | 1.02 | 1.306 mg/mL | 0.124 mg/mL | -13.77% | 100% | 86% | 75% | 67.4% |  |
| CC(C)NCC(O)COC1CCCC2CCCCC21 (stereo not drawn) [compound 23] | 2.62 | 2.697 mg/mL | 0.007 mg/mL |  |  |  |  |  |  |
| COc1ccccc1N1CCN(CC(O)COc2cccc3ccccc23)CC1 (stereo not drawn) [Naftopidil] | 2.04 | 1.697 mg/mL | 0.016 mg/mL | -25.63% | 100% | 72.2% | 58.9% | 47% |  |
| C[C@@H](NCCCc1cccc(C(F)(F)F)c1)c1cccc2c1CCCC2 [compound 39] | 4.79 | 9.541 mg/mL | 0.0001 mg/mL |  |  |  |  |  | CLint scaled at 1 µM [5]: 4.08 L/h/kg; microsomal CLint at 1 µM [5]: 66.2 µL/min/mg; half-life at 1 µM [5, 6]: 21 min; half-life at 1 µM [5, 7]: 21 min; Hepatic Extraction Ratio (ER) [5]: 0.76; Remaining Percentage 0.5 min [5]: 100.00%; Remaining Percentage 5 min [5]: 85.98%; Remaining Percentage 15 min [5]: 57.81%; Remaining Percentage 30 min [5]: 38.01%; Predicted Hepatic CLH [5]: 0.963 L/h/kg; half-life at 105 µM [2]: 33.7 min |
| CN(Cc1ccc(C(C)(C)C)cc1)Cc1cccc2ccccc12 [Butenafine] |  |  |  | -2.69% | 100% | 97.8% | 95.6% | 94.9% |  |
| O=C(/C=C/c1ccccc1)N[C@@H](Cc1ccccc1)C(=O)N[C@@H](C[C@@H]1CCNC1=O)C(=O)C(=O)NCc1ccccc1 [compound 1] |  |  |  |  |  |  |  |  | IC50 (SARS-CoV M^pro): 1.95 µM |
